Assay results as given in US12421232B2, “Kinase inhibitor compounds and compositions and methods of use” (ICAHN SCHOOL OF MEDICINE AT MOUNT SINAI, priority 2018, dated 2025).
Read-outs that look alike come from different tables or passages of the source. Marks after values point to notes of the source that are not given here.

What was measured:
[1] = tested on: human β-cells (dispersed human islet cells); test: Human β-cell proliferation assay (Ki67 and insulin staining); type: cell-based
[2] = tested on: NFAT2-GFP nuclear translocation in R7T1 rodent beta cells; test: NFAT2 translocation assay; type: cell-based; details: 10 μM, 24 hours
Excerpt: NFAT2T Translocation Assay. […] At least 1000 cells were counted.

CAMK2B = target: T1, CAMK2B (Homo sapiens, UniProt Q13554); test: KINOMEscan Assay (DiscoverX); type: binding; details: read-out: % DMSO Ctrl
T1 construct: purchased DiscoverX

FLT3(ITD,D835V) = test: KINOMEscan Assay (DiscoverX); type: binding; details: FLT3(ITD,D835V) mutant; 10 μM
PIK3CA(I800L) = target: T2, PIK3CA(I800L) (Homo sapiens, UniProt P42336, I800L); test: KINOMEscan Assay (DiscoverX); type: binding; details: read-out: % DMSO Ctrl
T2 construct: purchased DiscoverX

[3] = target: T3, TYK2(JH1domain-catalytic) (Homo sapiens, UniProt P29597); test: KINOMEscan Assay (DiscoverX); type: binding; details: read-out: % DMSO Ctrl
T3 construct: JH1domain; purchased DiscoverX
T3 sequence (P29597 897-1176 limits assumed): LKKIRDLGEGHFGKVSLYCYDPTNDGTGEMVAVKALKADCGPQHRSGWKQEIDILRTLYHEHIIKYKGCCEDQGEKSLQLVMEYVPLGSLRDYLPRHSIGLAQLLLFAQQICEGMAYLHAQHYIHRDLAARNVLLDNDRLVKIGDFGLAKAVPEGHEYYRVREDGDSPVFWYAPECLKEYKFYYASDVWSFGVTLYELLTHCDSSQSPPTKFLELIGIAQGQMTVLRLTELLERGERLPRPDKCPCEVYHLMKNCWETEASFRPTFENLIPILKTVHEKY

CDK11 = target: T4, CDK11 (Homo sapiens, UniProt Q9BWU1); test: KINOMEscan Assay (DiscoverX); type: binding; details: read-out: % DMSO Ctrl
T4 construct: purchased DiscoverX

CDK8 = target: T5, CDK8 (Homo sapiens, UniProt P49336); test: KINOMEscan Assay (DiscoverX); type: binding; details: read-out: % DMSO Ctrl
T5 construct: purchased DiscoverX

CDKL5 = target: T6, CDKL5 (Homo sapiens, UniProt O76039); test: KINOMEscan Assay (DiscoverX); type: binding; details: read-out: % DMSO Ctrl
T6 construct: purchased DiscoverX

CIT = target: T7, CIT (Homo sapiens, UniProt O14578); test: KINOMEscan Assay (DiscoverX); type: binding; details: read-out: % DMSO Ctrl
T7 construct: purchased DiscoverX

CLK1 = target: T8, CLK1 (Homo sapiens, UniProt P49759); test: KINOMEscan Assay (DiscoverX); type: binding; details: read-out: % DMSO Ctrl
T8 construct: purchased DiscoverX

CLK2 = target: T9, CLK2 (Homo sapiens, UniProt P49760); test: KINOMEscan Assay (DiscoverX); type: binding; details: read-out: % DMSO Ctrl
T9 construct: purchased DiscoverX

CLK4 = target: T10, CLK4 (Homo sapiens, UniProt Q9HAZ1); test: KINOMEscan Assay (DiscoverX); type: binding; details: read-out: % DMSO Ctrl
T10 construct: purchased DiscoverX

CSNK1D = target: T11, CSNK1D (Homo sapiens, UniProt P48730); test: KINOMEscan Assay (DiscoverX); type: binding; details: read-out: % DMSO Ctrl
T11 construct: purchased DiscoverX

CSNK1E = target: T12, CSNK1E (Homo sapiens, UniProt P49674); test: KINOMEscan Assay (DiscoverX); type: binding; details: read-out: % DMSO Ctrl
T12 construct: purchased DiscoverX

CSNK2A2 = target: T13, CSNK2A2 (Homo sapiens, UniProt P19784); test: KINOMEscan Assay (DiscoverX); type: binding; details: read-out: % DMSO Ctrl
T13 construct: purchased DiscoverX

DAPK1 = target: T14, DAPK1 (Homo sapiens, UniProt P53355); test: KINOMEscan Assay (DiscoverX); type: binding; details: read-out: % DMSO Ctrl
T14 construct: purchased DiscoverX

DAPK2 = target: T15, DAPK2 (Homo sapiens, UniProt Q9UIK4); test: KINOMEscan Assay (DiscoverX); type: binding; details: read-out: % DMSO Ctrl
T15 construct: purchased DiscoverX

DAPK3 = target: T16, DAPK3 (Homo sapiens, UniProt O43293); test: KINOMEscan Assay (DiscoverX); type: binding; details: read-out: % DMSO Ctrl
T16 construct: purchased DiscoverX

DRAK2 = target: T17, DRAK2 (Homo sapiens, UniProt O94768); test: KINOMEscan Assay (DiscoverX); type: binding; details: read-out: % DMSO Ctrl
T17 construct: purchased DiscoverX

HIPK1 = target: T18, HIPK1 (Homo sapiens, UniProt Q86Z02); test: KINOMEscan Assay (DiscoverX); type: binding; details: read-out: % DMSO Ctrl
T18 construct: purchased DiscoverX

TGFBR2 = target: T19, TGFBR2 (Homo sapiens, UniProt P37173); test: KINOMEscan Assay (DiscoverX); type: binding; details: read-out: % DMSO Ctrl
T19 construct: purchased DiscoverX

VPS34 = target: T20, VPS34 (Homo sapiens, UniProt Q8NEB9); test: KINOMEscan Assay (DiscoverX); type: binding; details: read-out: % DMSO Ctrl
T20 construct: purchased DiscoverX

DYRK1A [4] = target: T21, DYRK1A (Homo sapiens, UniProt Q13627); test: KINOMEscan Assay (DiscoverX); type: binding; parameters: purchased Life Technologies
DYRK1A [5] = target: T21, DYRK1A; test: FRET-based LanthaScreen Eu Kinase Binding Assay (Life Technologies)
468 kinases = test: KINOMEscan profile, whole panel; type: binding; details: 10 μM
Adrenergic α2B = target: T22, Adrenergic α2B (Homo sapiens, UniProt P18089); test: Eurofins CEREP Screen; type: binding
T22 construct: purchased Eurofins CEREP

Adrenergic α2C = target: T23, Adrenergic α2C (Homo sapiens, UniProt P18825); test: Eurofins CEREP Screen; type: binding
T23 construct: purchased Eurofins CEREP

[6] = target: T24, Serotonin (5-Hydroxytryptamine) 5-HT2A (Homo sapiens, UniProt P28223); test: Eurofins CEREP Screen; type: binding
T24 construct: purchased Eurofins CEREP

[7] = target: T25, Serotonin (5-Hydroxytryptamine) 5-HT2C (Homo sapiens, UniProt P28335); test: Eurofins CEREP Screen; type: binding
T25 construct: purchased Eurofins CEREP

[8] = target: T26, Serotonin (5-Hydroxytryptamine) 5-HT6 (Homo sapiens, UniProt P50406); test: Eurofins CEREP Screen; type: binding
T26 construct: Eurofins CEREP (contract screen)

[9] = target: T27, Serotonin (5-Hydroxytryptamine) 5-HT7 (Homo sapiens, UniProt P34969); test: Eurofins CEREP Screen; type: binding
T27 construct: Eurofins CEREP (contract screen)

[10] = target: T28, Transporter, Norepinephrine (NET) (Homo sapiens, UniProt P23975); test: Eurofins CEREP Screen; type: binding
T28 construct: Eurofins CEREP (contract screen)

Adrenergic α2A = Adrenergic α2A (Homo sapiens, UniProt P08913); test: biochemical

T1 sequence (Q13554 whole entry): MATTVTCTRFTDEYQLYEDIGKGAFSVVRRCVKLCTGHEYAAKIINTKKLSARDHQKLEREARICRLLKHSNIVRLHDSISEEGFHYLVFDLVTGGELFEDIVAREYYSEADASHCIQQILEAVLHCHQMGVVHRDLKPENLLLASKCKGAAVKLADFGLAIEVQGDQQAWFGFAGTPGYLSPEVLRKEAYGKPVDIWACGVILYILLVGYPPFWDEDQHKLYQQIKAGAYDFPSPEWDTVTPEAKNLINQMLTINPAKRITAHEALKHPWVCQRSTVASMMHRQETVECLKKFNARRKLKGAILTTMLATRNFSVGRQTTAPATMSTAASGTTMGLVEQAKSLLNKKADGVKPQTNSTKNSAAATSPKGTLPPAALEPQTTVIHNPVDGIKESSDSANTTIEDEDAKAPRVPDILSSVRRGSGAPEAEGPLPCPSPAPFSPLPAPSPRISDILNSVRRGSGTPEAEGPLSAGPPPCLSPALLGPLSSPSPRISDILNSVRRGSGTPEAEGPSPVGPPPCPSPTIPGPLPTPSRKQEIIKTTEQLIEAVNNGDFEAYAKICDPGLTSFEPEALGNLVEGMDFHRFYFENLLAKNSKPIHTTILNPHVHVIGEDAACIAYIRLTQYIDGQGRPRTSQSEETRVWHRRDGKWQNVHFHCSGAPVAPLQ
T2 sequence (P42336 whole entry I800L): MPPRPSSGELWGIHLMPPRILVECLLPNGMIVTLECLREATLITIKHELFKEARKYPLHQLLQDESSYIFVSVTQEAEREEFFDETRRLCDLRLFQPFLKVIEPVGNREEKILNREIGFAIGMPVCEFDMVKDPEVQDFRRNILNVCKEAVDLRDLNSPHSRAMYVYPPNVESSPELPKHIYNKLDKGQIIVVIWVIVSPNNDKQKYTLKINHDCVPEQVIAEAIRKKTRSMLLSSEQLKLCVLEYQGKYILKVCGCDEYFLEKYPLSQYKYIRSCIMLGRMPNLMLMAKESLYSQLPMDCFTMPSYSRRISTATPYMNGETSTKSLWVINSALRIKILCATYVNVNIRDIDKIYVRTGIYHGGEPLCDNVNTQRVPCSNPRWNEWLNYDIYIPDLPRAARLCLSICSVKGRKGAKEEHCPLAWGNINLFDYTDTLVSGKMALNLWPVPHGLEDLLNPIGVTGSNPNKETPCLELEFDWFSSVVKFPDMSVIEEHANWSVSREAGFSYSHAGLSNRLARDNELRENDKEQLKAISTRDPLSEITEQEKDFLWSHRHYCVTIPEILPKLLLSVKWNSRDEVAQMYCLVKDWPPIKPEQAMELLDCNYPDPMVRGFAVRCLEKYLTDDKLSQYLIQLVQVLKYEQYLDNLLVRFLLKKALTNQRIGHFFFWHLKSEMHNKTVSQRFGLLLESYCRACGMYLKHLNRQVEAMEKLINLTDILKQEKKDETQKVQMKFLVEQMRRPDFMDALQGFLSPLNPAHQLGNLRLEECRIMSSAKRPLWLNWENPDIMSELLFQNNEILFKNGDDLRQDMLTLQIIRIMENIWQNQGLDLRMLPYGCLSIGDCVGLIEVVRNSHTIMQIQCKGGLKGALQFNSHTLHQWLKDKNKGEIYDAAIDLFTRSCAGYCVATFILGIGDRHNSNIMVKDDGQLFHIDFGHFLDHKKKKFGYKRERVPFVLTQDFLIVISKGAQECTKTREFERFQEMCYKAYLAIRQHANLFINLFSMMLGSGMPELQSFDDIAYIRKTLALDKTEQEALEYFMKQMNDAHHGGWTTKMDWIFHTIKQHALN
T13 sequence (P19784 whole entry): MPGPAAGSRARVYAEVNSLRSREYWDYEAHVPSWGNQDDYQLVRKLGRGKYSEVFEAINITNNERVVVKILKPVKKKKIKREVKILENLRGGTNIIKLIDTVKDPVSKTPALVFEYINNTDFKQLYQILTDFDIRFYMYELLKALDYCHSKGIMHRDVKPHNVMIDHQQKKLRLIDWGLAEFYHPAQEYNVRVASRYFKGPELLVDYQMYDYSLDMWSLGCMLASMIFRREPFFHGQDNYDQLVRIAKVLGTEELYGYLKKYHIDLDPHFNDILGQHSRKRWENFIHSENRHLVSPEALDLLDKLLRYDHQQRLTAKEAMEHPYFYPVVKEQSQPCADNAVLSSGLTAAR
T10 sequence (Q9HAZ1 whole entry): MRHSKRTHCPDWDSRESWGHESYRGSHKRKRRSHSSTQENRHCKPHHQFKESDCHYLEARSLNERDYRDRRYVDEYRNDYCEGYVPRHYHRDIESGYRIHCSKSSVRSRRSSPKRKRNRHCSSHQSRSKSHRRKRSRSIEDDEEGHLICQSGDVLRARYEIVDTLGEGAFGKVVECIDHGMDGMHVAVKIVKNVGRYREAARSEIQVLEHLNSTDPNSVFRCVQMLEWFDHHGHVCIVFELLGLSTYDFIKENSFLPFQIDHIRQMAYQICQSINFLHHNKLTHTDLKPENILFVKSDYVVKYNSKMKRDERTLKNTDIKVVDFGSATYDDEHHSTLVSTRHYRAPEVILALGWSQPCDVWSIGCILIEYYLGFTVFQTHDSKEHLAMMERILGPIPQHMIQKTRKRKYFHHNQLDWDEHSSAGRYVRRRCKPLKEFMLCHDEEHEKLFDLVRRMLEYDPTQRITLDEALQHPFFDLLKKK
T6 sequence (O76039 whole entry): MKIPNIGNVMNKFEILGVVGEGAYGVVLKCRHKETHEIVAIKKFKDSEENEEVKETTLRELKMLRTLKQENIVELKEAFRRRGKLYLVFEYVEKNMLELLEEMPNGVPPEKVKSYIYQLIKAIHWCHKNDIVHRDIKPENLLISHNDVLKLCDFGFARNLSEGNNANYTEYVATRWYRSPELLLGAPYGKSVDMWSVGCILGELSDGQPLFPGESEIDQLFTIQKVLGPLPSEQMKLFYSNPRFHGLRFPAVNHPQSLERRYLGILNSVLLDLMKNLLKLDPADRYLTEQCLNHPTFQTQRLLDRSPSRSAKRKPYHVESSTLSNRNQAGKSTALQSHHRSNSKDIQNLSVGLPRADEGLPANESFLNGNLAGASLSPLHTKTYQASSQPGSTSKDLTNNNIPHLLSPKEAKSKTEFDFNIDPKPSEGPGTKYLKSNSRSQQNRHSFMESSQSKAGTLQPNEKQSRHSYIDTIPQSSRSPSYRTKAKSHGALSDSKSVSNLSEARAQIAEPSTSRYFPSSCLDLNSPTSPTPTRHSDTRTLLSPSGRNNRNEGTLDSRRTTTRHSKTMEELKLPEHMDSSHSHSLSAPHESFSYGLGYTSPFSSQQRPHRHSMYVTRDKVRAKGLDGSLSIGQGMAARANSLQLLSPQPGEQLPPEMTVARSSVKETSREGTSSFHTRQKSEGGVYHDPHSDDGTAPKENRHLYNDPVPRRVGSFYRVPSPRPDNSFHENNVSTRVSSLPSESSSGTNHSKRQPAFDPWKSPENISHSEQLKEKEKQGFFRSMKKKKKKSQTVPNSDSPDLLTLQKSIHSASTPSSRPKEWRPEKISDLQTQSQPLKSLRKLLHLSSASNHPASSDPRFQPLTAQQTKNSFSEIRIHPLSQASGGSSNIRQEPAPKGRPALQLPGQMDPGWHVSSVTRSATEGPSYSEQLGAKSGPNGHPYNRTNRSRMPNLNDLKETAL
T9 sequence (P49760 whole entry): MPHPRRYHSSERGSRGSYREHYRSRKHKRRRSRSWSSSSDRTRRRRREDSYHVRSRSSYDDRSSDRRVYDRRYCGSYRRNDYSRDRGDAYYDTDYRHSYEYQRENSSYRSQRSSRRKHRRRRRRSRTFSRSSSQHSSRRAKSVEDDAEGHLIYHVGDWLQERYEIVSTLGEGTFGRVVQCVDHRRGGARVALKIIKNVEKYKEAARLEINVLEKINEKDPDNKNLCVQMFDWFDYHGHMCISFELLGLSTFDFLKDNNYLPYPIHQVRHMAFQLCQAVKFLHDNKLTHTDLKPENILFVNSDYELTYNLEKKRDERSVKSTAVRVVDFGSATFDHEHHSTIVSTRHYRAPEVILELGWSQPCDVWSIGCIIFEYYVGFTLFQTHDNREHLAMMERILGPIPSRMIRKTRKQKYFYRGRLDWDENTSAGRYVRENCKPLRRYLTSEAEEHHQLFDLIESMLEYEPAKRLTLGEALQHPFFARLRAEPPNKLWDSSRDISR
T4 sequence (Q9BWU1 whole entry): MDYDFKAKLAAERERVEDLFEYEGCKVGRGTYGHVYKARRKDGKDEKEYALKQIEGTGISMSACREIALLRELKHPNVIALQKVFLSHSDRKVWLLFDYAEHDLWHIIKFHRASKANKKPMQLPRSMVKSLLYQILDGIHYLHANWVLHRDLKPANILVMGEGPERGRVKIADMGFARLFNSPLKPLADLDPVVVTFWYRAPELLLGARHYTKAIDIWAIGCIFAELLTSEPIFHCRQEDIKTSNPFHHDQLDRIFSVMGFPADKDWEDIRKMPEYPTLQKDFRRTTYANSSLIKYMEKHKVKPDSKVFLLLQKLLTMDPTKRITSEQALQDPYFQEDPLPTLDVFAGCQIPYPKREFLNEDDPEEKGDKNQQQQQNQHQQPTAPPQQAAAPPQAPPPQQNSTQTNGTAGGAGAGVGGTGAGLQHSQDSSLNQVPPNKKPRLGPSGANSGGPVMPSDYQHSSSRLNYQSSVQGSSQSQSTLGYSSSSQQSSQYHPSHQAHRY
T15 sequence (Q9UIK4 whole entry): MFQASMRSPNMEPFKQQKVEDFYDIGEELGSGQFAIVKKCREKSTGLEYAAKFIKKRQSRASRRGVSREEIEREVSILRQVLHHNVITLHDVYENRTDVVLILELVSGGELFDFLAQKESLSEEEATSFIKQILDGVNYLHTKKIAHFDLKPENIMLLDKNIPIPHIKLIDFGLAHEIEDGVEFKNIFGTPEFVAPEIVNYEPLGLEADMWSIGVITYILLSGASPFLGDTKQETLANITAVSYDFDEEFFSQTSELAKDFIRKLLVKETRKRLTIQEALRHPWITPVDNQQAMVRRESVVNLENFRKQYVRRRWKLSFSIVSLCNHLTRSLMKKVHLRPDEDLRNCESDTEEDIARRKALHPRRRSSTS

Structure (SMILES)	% DMSO Ctrl (FLT3(ITD,D835V))	remaining binding at 10 µM (CAMK2B) [%]	remaining binding at 10 µM (CDK11) [%]	remaining binding at 10 µM (CDK8) [%]	remaining binding at 10 µM (CDKL5) [%]	remaining binding at 10 µM (CIT) [%]	remaining binding at 10 µM (CLK1) [%]	remaining binding at 10 µM (CLK2) [%]	remaining binding at 10 µM (CLK4) [%]	remaining binding at 10 µM (CSNK1D) [%]	remaining binding at 10 µM (CSNK1E) [%]	remaining binding at 10 µM (CSNK2A2) [%]	remaining binding at 10 µM (DAPK1) [%]	remaining binding at 10 µM (DAPK2) [%]	remaining binding at 10 µM (DAPK3) [%]	remaining binding at 10 µM (DRAK2) [%]	remaining binding at 10 µM (HIPK1) [%]	remaining binding at 10 µM (PIK3CA(I800L)) [%]	remaining binding at 10 µM (TGFBR2) [%]	remaining binding at 10 µM [3] [%]	other results
COc1ccc2c(c1)[nH]c1c(C)nc(CO)cc12 [Compound 2-8, (1-Methyl-7-methoxy-9H-pyrido[3,4-b]indol-3-yl)methanol]	37 % DMSO Ctrl																				beta cell toxicity [1]: did not cause toxicity; NFAT2 translocation to nucleus [2]: drove NFAT2 translocation to nucleus; remaining binding at 10 µM (CAMK2B; CAMK2B, 10 μM): 42%; remaining binding at 10 µM (PIK3CA(I800L); PIK3CA(I800L) mutant, 10 μM): 63%; remaining binding at 10 µM ([3]; TYK2(JH1domain-catalytic), 10 μM): 64%
COc1ccc2c3ccnc(C)c3n(CCCc3noc(N)n3)c2c1 [Compound 20-13, 3-(3-(7-Methoxy-1-methyl-β-carbolin-9-yl)propyl)-5-amino-1,2,4-oxadiazole]	11 ^c % DMSO Ctrl	69	81	100	21	66	4.1	4.2	1.7	65	61	50	91	92	91	100	9.5	10	100	17	human β-cell proliferation (in words) ([1]; 5 μM, versus harmine at 10 μM): induced Human 3-Cell proliferation to a greater extent that harmine; remaining binding at 10 µM (VPS34): 42%; % DMSO Ctrl (DYRK1A [4]; DYRK1A, 10 μM): 0 ^b % DMSO Ctrl
C#CCn1c2cc(OC)ccc2c2ccnc(C)c21 [Compound 20-23a, 3-(7-Methoxy-1-methyl-β-carbolin-9-yl)-propan-1-yne]	11 ^c % DMSO Ctrl	3	40	26	22	26	1.9	0.9	1.1	38	26	54	89	70	75	100	12	73	98	91	remaining binding at 10 µM (VPS34; VPS34, 10 μM): 89%; remaining binding at 10 µM (DYRK1A [4]; read-out: % DMSO Ctrl): 0%; IC50 (DYRK1A [5]): 8 nM
COc1ccc2c(c1)[nH]c1c(C)nccc12 [Harmine, reference compound]																					kinases inhibited (<20% activity remaining) in addition to DYRK1A (468 kinases): 16; inhibition at 10 µM (Adrenergic α2B): 32%; inhibition at 10 µM (Adrenergic α2C): 45%; inhibition at 10 µM [6]: 23%; inhibition at 10 µM [7]: 75%; inhibition at 10 µM [8]: 37%; inhibition at 10 µM [9]: 30%; inhibition at 10 µM [10]: 86%; inhibition at 10 µM (Adrenergic α2A): 59%
